Values after ≈ are worked out from the molar mass of the structure shown.
What was measured:
HSV-1 = assay: HSV Antiviral (ELISA) Assay in Vero cells; type: cell-based, herpes simplex virus type 1; conditions: HSV-1, Vero cells; for IC50: Human alphaherpesvirus 1, read-out: IC50 (ug/ml) HSV
Procedure, shortened: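 Viral replication was quantified by cell-fixed ELISA for HSV glycoprotein D, using a β-galactosidase reporter and fluorogenic umbelliferyl substrate, about 24 h after HSV-1 infection (MOI 0.006) of Vero cells. Compounds, at several concentrations, were added 30 min pre-infection. IC50 was derived from fluorescence relative to the compound-free signal.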

VZV strain Ellen = assay: VZV Antiviral (ELISA) Assay in human foreskin fibroblast cells; type: cell-based, varicella-zoster virus; conditions: for IC50 / inhibition at 10 µg/mL: Human alphaherpesvirus 3, Fibroblast; for IC50: read-out: IC50 (ug/ml) VZV; for inhibition at 10 µg/mL: read-out: % inhibition 10 ug/ml VZV, 10 ug/ml
Procedure, shortened: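 Antiviral IC50 is derived by comparing fluorescence with and without compound after a three-day culture of VZV-infected plus uninfected foreskin fibroblasts. Replication is quantified by ELISA against glycoprotein II, using a β-galactosidase secondary and methyl umbelliferyl-β-D-galactoside.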

[1] = tested on: HCMV recombinant mutant virus (RV145); assay: microbe, parasite or virus in culture; type: cell-based, human cytomegalovirus; conditions: for IC50: Human betaherpesvirus 5, read-out: IC50 ug/ml HCMV, HCMV
Procedure, shortened: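 Read-out is beta-glucuronidase activity in cell lysates 96 h after infection, measured colorimetrically or fluorometrically. Reporter virus RV145 expresses the enzyme under a viral promoter in human foreskin fibroblasts treated with inhibitor.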

## O=C(Nc1ccc(NC(=S)NC(CO)c2ccccc2)cc1)c1ccccc1F (stereo not shown) [Example 797]
HSV-1
  IC50: > 10 µg/mL
VZV strain Ellen
  IC50: 1.7 µg/mL (≈ 4.15 µM)
[1]
  IC50: > 10 µg/mL

## COc1cc(OC)c(NC(=S)Nc2ccc(NC(=O)c3ccc(F)cc3)cc2)cc1Cl [Example 116]
HSV-1
  IC50 (ug/ml) HSV: 2 µg/mL (≈ 4.35 µM)
VZV strain Ellen
  IC50 (ug/ml) VZV: >10 µg/mL
  % inhibition 10 ug/ml VZV: 0%
[1]
  IC50 ug/ml HCMV: 3 µg/mL (≈ 6.52 µM)

## COc1cc(OC)c(NC(=S)Nc2ccc(NC(=O)c3cccc(NC(C)=O)c3)cc2)cc1Cl [Example 134]
HSV-1
  IC50 (ug/ml) HSV: > 10 µg/mL
VZV strain Ellen
  IC50 (ug/ml) VZV: >10 µg/mL
  % inhibition 10 ug/ml VZV: 50%
[1]
  IC50 ug/ml HCMV: 4 µg/mL (≈ 8.02 µM)

## CC(NC(=S)Nc1ccc(NC(=O)c2ccc(Cl)cc2)cc1)c1ccc(F)cc1 (stereo not shown) [Example 756]
HSV-1
  IC50 (ug/ml) HSV: >10 µg/mL
VZV strain Ellen
  IC50 (ug/ml) VZV: 0.3 µg/mL (≈ 0.701 µM)
[1]
  IC50 ug/ml HCMV: >10 µg/mL

## CN1CCC(N(C)c2ccc(NC(=S)Nc3ccc(NC(=O)c4ccccc4F)cc3)cc2Cl)C1 (stereo not shown) [Example 332]
HSV-1
  IC50 (ug/ml) HSV: 1 µg/mL (≈ 1.95 µM)
VZV strain Ellen
  IC50 (ug/ml) VZV: 8 µg/mL (≈ 15.6 µM)
  % inhibition 10 ug/ml VZV: 90%
[1]
  IC50 ug/ml HCMV: 0.9 µg/mL (≈ 1.76 µM)

## COc1cc(OC)c(NC(=S)Nc2ccc(NC(=O)c3ccccc3C(F)(F)F)cc2)cc1Cl [Example 138]
HSV-1
  IC50 (ug/ml) HSV: 1 µg/mL (≈ 1.96 µM)
VZV strain Ellen
  IC50 (ug/ml) VZV: >10 µg/mL
  % inhibition 10 ug/ml VZV: 57%
[1]
  IC50 ug/ml HCMV: 8 µg/mL (≈ 15.7 µM)

## COc1ccc(C(C)NC(=S)Nc2ccc(NC(=O)c3ccccc3F)cc2)cc1 (stereo not shown) [Example 777]
HSV-1
  IC50 (ug/ml) HSV: >10 µg/mL
VZV strain Ellen
  IC50 (ug/ml) VZV: >7.5 µg/mL
[1]
  IC50 ug/ml HCMV: 1.7 µg/mL (≈ 4.01 µM)

## N#Cc1cccc(NC(=S)Nc2ccc(NC(=O)c3ccccc3F)cc2)c1 [Example 461]
HSV-1
  IC50 (ug/ml) HSV: >10 µg/mL
VZV strain Ellen
  IC50 (ug/ml) VZV: >10 µg/mL
  % inhibition 10 ug/ml VZV: 33%
[1]
  IC50 ug/ml HCMV: >10 µg/mL

## Cc1ccccc1C(=O)Nc1ccc(NC(=S)Nc2ccc(N(C)C3CCN(Cc4ccccc4)C3)c(Cl)c2)cc1 (stereo not shown) [Example 374]
HSV-1
  IC50 (ug/ml) HSV: 3 µg/mL (≈ 5.14 µM)
VZV strain Ellen
  IC50 (ug/ml) VZV: 4 µg/mL (≈ 6.85 µM)
  % inhibition 10 ug/ml VZV: 70%
[1]
  IC50 ug/ml HCMV: 3 µg/mL (≈ 5.14 µM)

## COc1cc(OC)c(NC(=S)Nc2ccc(NC(=O)c3cccc([N+](=O)[O-])c3)cc2)cc1Cl [Example 135]
HSV-1
  IC50 (ug/ml) HSV: 1.5 µg/mL (≈ 3.08 µM)
VZV strain Ellen
  IC50 (ug/ml) VZV: >10 µg/mL
  % inhibition 10 ug/ml VZV: 0%
[1]
  IC50 ug/ml HCMV: 5 µg/mL (≈ 10.3 µM)

## CC(NC(=S)Nc1ccc(NC(=O)c2cccc(F)c2)cc1)c1ccc(F)cc1 (stereo not shown) [Example 800]
HSV-1
  IC50: > 10 µg/mL
VZV strain Ellen
  IC50: > 7.5 µg/mL
[1]
  IC50: > 10 µg/mL

## CC(NC(=S)Nc1ccc(NC(=O)c2ccccc2C(F)(F)F)cc1)c1cc2ccccc2o1 (stereo not shown) [Example 974, N-{4-[3-(1-Benzofuran-2-yl-ethyl)-thioureido]-phenyl}-2-trifluoromethyl-benzamide]
HSV-1
  IC50: > 10 µg/mL
VZV strain Ellen
  IC50: > 7.5 µg/mL
[1]
  IC50: > 10 µg/mL

## COc1c(Cl)cc(NC(=S)Nc2ccc(NC(=O)c3ccc(F)cc3)cc2)cc1Cl [Example 133]
HSV-1
  IC50 (ug/ml) HSV: 7 µg/mL (≈ 15.1 µM)
VZV strain Ellen
  IC50 (ug/ml) VZV: >10 µg/mL
  % inhibition 10 ug/ml VZV: 36%
[1]
  IC50 ug/ml HCMV: 0.6 µg/mL (≈ 1.29 µM)

## COc1cccc(C(=O)Nc2ccc(NC(=S)NC(C)c3ccc(F)cc3)cc2)c1 (stereo not shown) [Example 753]
HSV-1
  IC50 (ug/ml) HSV: >10 µg/mL
VZV strain Ellen
  IC50 (ug/ml) VZV: >7.5 µg/mL
[1]
  IC50 ug/ml HCMV: >0.5 µg/mL

## COc1cc(OC)c(NC(=S)Nc2ccc(NC(=O)c3c(F)c(F)c(F)c(F)c3F)cc2)cc1Cl [Example 193]
HSV-1
  IC50 (ug/ml) HSV: 1.5 µg/mL (≈ 2.82 µM)
VZV strain Ellen
  IC50 (ug/ml) VZV: 3.8 µg/mL (≈ 7.14 µM)
  % inhibition 10 ug/ml VZV: 106%
[1]
  IC50 ug/ml HCMV: >10 µg/mL

## COc1ccc(C(=O)Nc2ccc(NC(=S)NC(C)c3ccc(F)cc3)cc2)cc1 (stereo not shown) [Example 754]
HSV-1
  IC50 (ug/ml) HSV: >10 µg/mL
VZV strain Ellen
  IC50 (ug/ml) VZV: 0.2 µg/mL (≈ 0.472 µM)
[1]
  IC50 ug/ml HCMV: >10 µg/mL

## CC(NC(=S)Nc1ccc(NC(=O)c2ccccc2)cc1)c1ccc(F)cc1 (stereo not shown) [Example 758]
HSV-1
  IC50: > 10 µg/mL
VZV strain Ellen
  IC50: > 10 µg/mL
[1]
  IC50: > 10 µg/mL

## Cc1ccccc1C(=O)Nc1ccc(NC(=S)Nc2ccc(N(C)C3CCCCC3)c(Cl)c2)cc1 [Example 247]
HSV-1
  IC50 (ug/ml) HSV: >10 µg/mL
VZV strain Ellen
  IC50 (ug/ml) VZV: 5 µg/mL (≈ 9.86 µM)
  % inhibition 10 ug/ml VZV: 74%
[1]
  IC50 ug/ml HCMV: >10 µg/mL

## COc1cc(OC)c(NC(=S)Nc2ccc(NC(=O)c3cc(F)ccc3F)cc2)cc1Cl [Example 187]
HSV-1
  IC50 (ug/ml) HSV: 0.2 µg/mL (≈ 0.418 µM)
VZV strain Ellen
  IC50 (ug/ml) VZV: >10 µg/mL
  % inhibition 10 ug/ml VZV: 53%
[1]
  IC50 ug/ml HCMV: >10 µg/mL

## Nc1c(Cl)cc(NC(=S)Nc2ccc(NC(=O)c3ccccc3F)cc2)cc1Cl [Example 518]
HSV-1
  IC50 (ug/ml) HSV: 0.25 µg/mL (≈ 0.556 µM)
VZV strain Ellen
  IC50 (ug/ml) VZV: >10 µg/mL
  % inhibition 10 ug/ml VZV: 32%
[1]
  IC50 ug/ml HCMV: 4 µg/mL (≈ 8.9 µM)

## Cc1ccc(NC(=S)Nc2ccc(NC(=O)c3ccccc3F)cc2)cc1Cl [Example 231]
HSV-1
  IC50 (ug/ml) HSV: 0.5 µg/mL (≈ 1.21 µM)
VZV strain Ellen
  IC50 (ug/ml) VZV: >10 µg/mL
  % inhibition 10 ug/ml VZV: 11%
[1]
  IC50 ug/ml HCMV: >10 µg/mL

## COc1ccccc1C(C)NC(=S)Nc1ccc(NC(=O)c2ccccc2F)cc1 (stereo not shown) [Example 788]
HSV-1
  IC50 (ug/ml) HSV: >10 µg/mL
VZV strain Ellen
  IC50 (ug/ml) VZV: >7.5 µg/mL
[1]
  IC50 ug/ml HCMV: 1.8 µg/mL (≈ 4.25 µM)

## CCOC(=O)Nc1ccc(NC(=S)Nc2ccc(NC(=O)c3ccccc3F)cc2)cc1Cl [Example 399]
HSV-1
  IC50 (ug/ml) HSV: >10 µg/mL
VZV strain Ellen
  IC50 (ug/ml) VZV: >10 µg/mL
  % inhibition 10 ug/ml VZV: 59%
[1]
  IC50 ug/ml HCMV: 1.5 µg/mL (≈ 3.08 µM)

## COc1cc(OC)c(NC(=S)Nc2ccc(NC(=O)c3cccc(OCc4ccccc4)c3)cc2)cc1Cl [Example 210]
HSV-1
  IC50 (ug/ml) HSV: 5 µg/mL (≈ 9.12 µM)
VZV strain Ellen
  IC50 (ug/ml) VZV: >10 µg/mL
  % inhibition 10 ug/ml VZV: 14%
[1]
  IC50 ug/ml HCMV: >10 µg/mL

## COc1cc(OC)c(NC(=S)Nc2ccc(NC(=O)c3ccccc3Br)cc2)cc1Cl [Example 142]
HSV-1
  IC50: 0.4 µg/mL (≈ 0.768 µM)
VZV strain Ellen
  inhibition at 10 µg/mL: 51%
  IC50: > 15 µg/mL
[1]
  IC50: 10 µg/mL (≈ 19.2 µM)

## CC(NC(=S)Nc1ccc(NC(=O)c2ccc(F)cc2)cc1)c1ccc(F)cc1 (stereo not shown) [Example 801]
HSV-1
  IC50: > 10 µg/mL
VZV strain Ellen
  IC50: > 7.5 µg/mL
[1]
  IC50: > 10 µg/mL

## CC(NC(=S)Nc1ccc(NC(=O)c2ccc(C(F)(F)F)cc2)cc1)c1ccc(F)cc1 (stereo not shown) [Example 1021, N-(4-{3-[1-(4-Fluorophenyl)-ethyl]-thioureido}-phenyl)-4-trifluoromethyl-benzamide]
HSV-1
  IC50: > 10 µg/mL
VZV strain Ellen
  IC50: 0.4 µg/mL (≈ 0.867 µM)
[1]
  IC50: > 10 µg/mL

## CCOC(=O)Nc1cccc(C(=O)Nc2ccc(NC(=S)Nc3cc(Cl)c(OC)cc3OC)cc2)c1 [Example 180]
HSV-1
  IC50 (ug/ml) HSV: 1.3 µg/mL (≈ 2.46 µM)
VZV strain Ellen
  IC50 (ug/ml) VZV: >10 µg/mL
  % inhibition 10 ug/ml VZV: 36%
[1]
  IC50 ug/ml HCMV: 1.5 µg/mL (≈ 2.84 µM)

## CC(NC(=S)Nc1ccc(NC(=O)c2cnc3ccccc3c2)cc1)c1ccc(F)cc1 (stereo not shown) [Example 988, Quinoline-3-carboxylic acid (4-{3-[1-(4-fluoro-phenyl)-ethyl]-thioureido}-phenyl)-amide]
HSV-1
  IC50: > 10 µg/mL
VZV strain Ellen
  IC50: 3.4 µg/mL (≈ 7.65 µM)
[1]
  IC50: > 10 µg/mL

## O=C(CN1CCOCC1)Nc1ccc(NC(=S)Nc2ccc(NC(=O)c3ccccc3F)cc2)cc1Cl [Example 367]
HSV-1
  IC50 (ug/ml) HSV: >10 µg/mL
VZV strain Ellen
  IC50 (ug/ml) VZV: >10 µg/mL
  % inhibition 10 ug/ml VZV: 20%
[1]
  IC50 ug/ml HCMV: >10 µg/mL

## CC(=O)c1cccc(NC(=S)Nc2ccc(NC(=O)c3ccccc3F)cc2)c1 [Example 965, N-{4-[3-(3-Acetyl-phenyl)-thioureido]-phenyl}-2-fluoro-benzamide]
HSV-1
  IC50: 5 µg/mL (≈ 12.3 µM)
VZV strain Ellen
  inhibition at 10 µg/mL: 12%
  IC50: > 10 µg/mL
[1]
  IC50: > 10 µg/mL

## COc1ccc(NC(=S)Nc2ccc(NC(=O)c3ccccc3F)cc2)cc1Br [Example 811]
HSV-1
  IC50 (ug/ml) HSV: 0.8 µg/mL (≈ 1.69 µM)
VZV strain Ellen
  IC50 (ug/ml) VZV: >7.5 µg/mL
[1]
  IC50 ug/ml HCMV: 3.1 µg/mL (≈ 6.54 µM)
